This test has as its system HEK293 cells. Briefly: Preliminary screening as DNA vectors, GFP transfection of HEK293 cells. The test is classed as cell-based. Conditions: amino lipid/DOPE liposome with 75 ng plasmid DNA (psin-EGFP-IRES-Puro); number of GFP-expressing cells divided by total nuclei (Hoechst). The method in brief: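 Lipid + DOPE liposomes (NaOAc, pH 5.6) complexed w/ 75 ng psin-EGFP-IRES-Puro, 30 min RT; added to 3-5×10^4 HEK293/well, 37° C. Hoechst 0.2 μg/mL at 20-24 h, imaged after further 20-24 h. Efficiency = GFP+ cells / total nuclei.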

`CCCCCCCCCCCCCCCSc1nc(NCCN2CCCC2)nc(SCCCCCCC)n1` [S7S15 D3]: the “Absolute DNA transfection efficiency in HEK293 cells” value (“Absolute DNA transfection efficiency” for short) stood at 4.6%.
Consider `CCCCCCCCCCCCCCCSc1nc(NCCN2CCCCC2)nc(SCCCCCCC)n1` [S7S15 D4], for which the “Absolute DNA transfection efficiency” value is listed as 11.6%.
For `CCCCCCCCCCCCCCCSc1nc(NCCN2CCN(C)CC2)nc(SCCCCCCC)n1` [S7S15 D5], the “Absolute DNA transfection efficiency” value is listed as 14.9%.
As for `CCCCCCCCCCCCCCCSc1nc(NCCCN(C)C)nc(SCCCCCCC)n1` [S7S15 D6], the “Absolute DNA transfection efficiency” value is 7.6%.
For `CCCCCCCCCCCCCCCSc1nc(NCCN(CC)CC)nc(SCCCCCCC)n1` [S7S15 D7], the “Absolute DNA transfection efficiency” value is listed as 5.0%.
Take `CCCCCCCCCCCCCCCSc1nc(NCCCN2CCOCC2)nc(SCCCCCCC)n1` [S7S15 D8]: the “Absolute DNA transfection efficiency” value worked out at 10.9%.
`CCCCCCCCCCCCCCCSc1nc(NCCCN2CCN(C)CC2)nc(SCCCCCCC)n1` [S7S15 D9]: the “Absolute DNA transfection efficiency” value amounted to 1.6%.
In the case of `CCCCCCCCCCCCCCCSc1nc(NCC2CCN(C)CC2)nc(SCCCCCCC)n1` [S7S15 D10], the “Absolute DNA transfection efficiency” value came to 33.3%.
On to `CCCCCCCCCCCCCCCCSc1nc(NCCN(C)C)nc(SCCCCCCC)n1` [S7S16 D1], for which the “Absolute DNA transfection efficiency” value is 10.0%.
`CCCCCCCCCCCCCCCCSc1nc(NCCN2CCOCC2)nc(SCCCCCCC)n1` [S7S16 D2]: the “Absolute DNA transfection efficiency” value worked out at 17.6%.
As for `CCCCCCCCCCCCCCCCSc1nc(NCCN2CCCC2)nc(SCCCCCCC)n1` [S7S16 D3], the “Absolute DNA transfection efficiency” value is on record as 6.3%.
For the compound `CCCCCCCCCCCCCCCCSc1nc(NCCN2CCCCC2)nc(SCCCCCCC)n1` [S7S16 D4], the “Absolute DNA transfection efficiency” value stood at 10.9%.
For `CCCCCCCCCCCCCCCCSc1nc(NCCN2CCN(C)CC2)nc(SCCCCCCC)n1` [S7S16 D5] the value was 7.9%; for `CCCCCCCCCCCCCCCCSc1nc(NCCCN(C)C)nc(SCCCCCCC)n1` [S7S16 D6], 9.0%; for `CCCCCCCCCCCCCCCCSc1nc(NCCN(CC)CC)nc(SCCCCCCC)n1` [S7S16 D7], 3.5%.
For `CCCCCCCCCCCCCCCCSc1nc(NCCCN2CCOCC2)nc(SCCCCCCC)n1` [S7S16 D8] the value was 12.8%.
In the case of `CCCCCCCCCCCCCCCCSc1nc(NCCCN2CCN(C)CC2)nc(SCCCCCCC)n1` [S7S16 D9], the “Absolute DNA transfection efficiency” value worked out at 2.3%.
In the case of `CCCCCCCCCCCCCCCCSc1nc(NCC2CCN(C)CC2)nc(SCCCCCCC)n1` [S7S16 D10] it was 22.2%; in that of `CCCCCCCCCCCCCCCCCCSc1nc(NCCN(C)C)nc(SCCCCCCC)n1` [S7S18 D1], 3.7%; in that of `CCCCCCCCCCCCCCCCCCSc1nc(NCCN2CCOCC2)nc(SCCCCCCC)n1` [S7S18 D2], 7.1%.
Consider `CCCCCCCCCCCCCCCCCCSc1nc(NCCN2CCCC2)nc(SCCCCCCC)n1` [S7S18 D3], for which the “Absolute DNA transfection efficiency” value worked out at 11.2%.
Take `CCCCCCCCCCCCCCCCCCSc1nc(NCCN2CCCCC2)nc(SCCCCCCC)n1` [S7S18 D4]: the “Absolute DNA transfection efficiency” value is on record as 8.3%.
With `CCCCCCCCCCCCCCCCCCSc1nc(NCCN2CCN(C)CC2)nc(SCCCCCCC)n1` [S7S18 D5], the “Absolute DNA transfection efficiency” value is given as 14.2%.
As to `CCCCCCCCCCCCCCCCCCSc1nc(NCCCN(C)C)nc(SCCCCCCC)n1` [S7S18 D6], the “Absolute DNA transfection efficiency” value is recorded as 5.5%.
For `CCCCCCCCCCCCCCCCCCSc1nc(NCCN(CC)CC)nc(SCCCCCCC)n1` [S7S18 D7] the value was 7.3%; for `CCCCCCCCCCCCCCCCCCSc1nc(NCCCN2CCOCC2)nc(SCCCCCCC)n1` [S7S18 D8], 16.1%.
Turning to `CCCCCCCCCCCCCCCCCCSc1nc(NCCCN2CCN(C)CC2)nc(SCCCCCCC)n1` [S7S18 D9], the “Absolute DNA transfection efficiency” value is on record as 13.1%.
`CCCCCCCCCCCCCCCCCCSc1nc(NCC2CCN(C)CC2)nc(SCCCCCCC)n1` [S7S18 D10]: the “Absolute DNA transfection efficiency” value stood at 48.9%.
For the compound `CCCCCCCCCCCCN(CCCCCCCCCCCC)c1nc(NCCN(C)C)nc(SCCCCCCC)n1` [S7^2N12 D1], the “Absolute DNA transfection efficiency” value is recorded as 0.2%.
Regarding `CCCCCCCCCCCCN(CCCCCCCCCCCC)c1nc(NCCN2CCOCC2)nc(SCCCCCCC)n1` [S7^2N12 D2], the “Absolute DNA transfection efficiency” value is 0.0%.
With `CCCCCCCCCCCCN(CCCCCCCCCCCC)c1nc(NCCN2CCCC2)nc(SCCCCCCC)n1` [S7^2N12 D3], the “Absolute DNA transfection efficiency” value amounted to 0.1%.
For the compound `CCCCCCCCCCCCN(CCCCCCCCCCCC)c1nc(NCCN2CCCCC2)nc(SCCCCCCC)n1` [S7^2N12 D4], the “Absolute DNA transfection efficiency” value came to 0.0%.
On to `CCCCCCCCCCCCN(CCCCCCCCCCCC)c1nc(NCCN2CCN(C)CC2)nc(SCCCCCCC)n1` [S7^2N12 D5], for which the “Absolute DNA transfection efficiency” value is listed as 0.2%.
For `CCCCCCCCCCCCN(CCCCCCCCCCCC)c1nc(NCCCN(C)C)nc(SCCCCCCC)n1` [S7^2N12 D6], the “Absolute DNA transfection efficiency” value amounted to 0.6%.
In the case of `CCCCCCCCCCCCN(CCCCCCCCCCCC)c1nc(NCCN(CC)CC)nc(SCCCCCCC)n1` [S7^2N12 D7], the “Absolute DNA transfection efficiency” value is reported as 0.2%.
Regarding `CCCCCCCCCCCCN(CCCCCCCCCCCC)c1nc(NCCCN2CCOCC2)nc(SCCCCCCC)n1` [S7^2N12 D8], the “Absolute DNA transfection efficiency” value was determined as 0.0%.
With `CCCCCCCCCCCCN(CCCCCCCCCCCC)c1nc(NCCCN2CCN(C)CC2)nc(SCCCCCCC)n1` [S7^2N12 D9], the “Absolute DNA transfection efficiency” value is on record as 0.3%.
`CCCCCCCCCCCCN(CCCCCCCCCCCC)c1nc(NCC2CCN(C)CC2)nc(SCCCCCCC)n1` [S7^2N12 D10]: the “Absolute DNA transfection efficiency” value was 0.5%.
In the case of `CCCCCCCCSc1nc(NCCCCCC)nc(NCCN(C)C)n1` [S8N6 D1] it was 3.4%; in that of `CCCCCCCCSc1nc(NCCCCCC)nc(NCCN2CCOCC2)n1` [S8N6 D2], 0.2%.
Regarding `CCCCCCCCSc1nc(NCCCCCC)nc(NCCN2CCCC2)n1` [S8N6 D3], the “Absolute DNA transfection efficiency” value stood at 3.2%.
In the case of `CCCCCCCCSc1nc(NCCCCCC)nc(NCCN2CCCCC2)n1` [S8N6 D4] it was 2.6%; in that of `CCCCCCCCSc1nc(NCCCCCC)nc(NCCN2CCN(C)CC2)n1` [S8N6 D5], 5.0%; in that of `CCCCCCCCSc1nc(NCCCCCC)nc(NCCCN(C)C)n1` [S8N6 D6], 4.3%.
In the case of `CCCCCCCCSc1nc(NCCCCCC)nc(NCCN(CC)CC)n1` [S8N6 D7], the “Absolute DNA transfection efficiency” value is reported as 1.8%.
For `CCCCCCCCSc1nc(NCCCCCC)nc(NCCCN2CCOCC2)n1` [S8N6 D8] the value was 0.0%; for `CCCCCCCCSc1nc(NCCCCCC)nc(NCCCN2CCN(C)CC2)n1` [S8N6 D9], 2.2%; for `CCCCCCCCSc1nc(NCCCCCC)nc(NCC2CCN(C)CC2)n1` [S8N6 D10], 0.5%.
`CCCCCCCCSc1nc(NCCCCCCC)nc(NCCN(C)C)n1` [S8N7 D1]: the “Absolute DNA transfection efficiency” value is on record as 3.0%.
